Laboratory results: patent US11311522B1 (Cavion, Inc., priority 2018, dated 2022)

Key:
Cav3.2 = biological target: T1, Cav3.2 (Homo sapiens, UniProt O95180); test: Cav3.2 electrophysiology; type: cell-based; conditions: Vh=−80 mV
T1 construct: expressed in transfected cells

[1] = PN003: safety and tolerability; type: in vivo; conditions: for At least 1 adverse event / Disorientation / Dry mouth / Gastrointestinal Disorders / Hallucinations visual / Headache / Insomnia / Nausea / Nervous System Disorders / Psychiatric Disorders / Somnolence / Vivid dreams: Study PN003/Part I and Part II
Text: Additional adverse events, including mood swings, feeling frightened, laughing intermittently, difficulty moving hands, feeling weak, enhanced taste, loss of fine sensation in fingertips, some loss of sensation at skin level (all over body), and out of body feeling, were reported as the day progressed. All adverse events were mild or moderate in severity. Most events began minutes to hours after dosing, and all had resolved by 3 days after dosing. The adverse events that the subject experienced were described as “mood swings” and led to discontinuation of dosing. […] In addition, they reported feeling angry towards another subject, feeling dizzy/drunk, intense daydreams, shaking/trembling, and sweating. All adverse events were mild in severity, and all were considered possibly related to the study drug. The last dose of CX-8998 was not administered. All adverse events resolved after discontinuation of the study drug. […] The subject experienced nervous system-related events of gradually increasing severity, including lightheadedness, euphoria, tiredness, headache, hard to follow thoughts, vulnerable thoughts and emotions, feeling flat, and weak in the muscles. All adverse events were mild or moderate in severity, and all were considered possibly related to the study drug. The last dose of CX-8998 was not administered. All adverse events resolved after discontinuation of the study drug. […] Oxygen saturation and serum glucose levels were within normal limits, but the subject's blood pressure was low at the time of the event (76/43 mmHg, with a pulse rate of 59 bpm). […] The event was judged by the investigator as moderate in severity and as probably related to the study drug. The subject was discontinued from the study because of ongoing nausea and feelings of weakness and lethargy. […] The subject was not on telemetry at the time. The investigator considered the event to be a vasovagal reaction (moderate in severity) and assessed the event as unrelated to the study drug. The subject continued in the study and completed the planned 7 days of treatment. […] A washout period of at least 2 weeks separated the treatment periods. […] The PSG recordings were initiated at each subject's habitual bedtime and continued for 8 hours. In addition to PSG recordings, subjects were evaluated on the next day with subjective measures of sleep quality (Leeds Sleep Evaluation Questionnaire) and sleepiness (Karolinska Sleepiness Scale) and with cognitive and motor tasks to assess next-morning residual effects. An interim analysis of the primary endpoint (slow wave activity in the first one-third of sleep) was performed after 24 subjects had completed Part I of the study (Section 5.3.3.1.2). The study was adaptively designed to allow a re-estimation of the sample size after the interim analysis. Based on the results of the interim analysis, the study could be stopped if the efficacy criterion (increase in slow wave activity, p<0.05) or futility criterion (p>0.25) was achieved. If neither criterion was met, a re-estimation of the sample size was specified, with the ability to enroll up to 24 additional subjects. […] As in Part I of the study, PSG recordings were initiated at each subject's habitual bedtime and continued for 8 hours, and subjects were evaluated on the next day with subjective measures of sleep quality (Leeds Sleep Evaluation Questionnaire) and sleepiness (Karolinska Sleepiness Scale) and with cognitive and motor tasks to assess next-morning residual effects.
All reported adverse experiences were temporary and generally of mild intensity.
The visual disturbances tended to cease with eye opening and to recur with eye closure and were generally not disturbing to the subjects. […] No serious adverse events were reported, and none of the subjects discontinued treatment because of an adverse event. […] 5.3.3.1.3.2 Other Safety Assessments No clinically significant trends in safety laboratory parameters or vital signs were observed. […]

[2] = tested on: patients with essential tremor; test: T-CALM substudy: iMotor digital spirography; type: in vivo, human; conditions: dominant hand
Text: The application requires the patient to complete a cycle of evaluations measuring motor function.
For the Archimedes spiral item of iMotor, subjects are asked to draw a spiral using a digital stylus on a tablet-based application. Prompts instruct the subject to trace a dotted grey mid-line that begins at the start of the spiral without lifting the stylus off the screen. The test is not timed. Subjects are asked to complete the task twice—one with the right and one with the left hand.
Functional tremor frequency (in Hz) is calculated by the iMotor algorithm based on the number and timing of stylus crosses of the mid-line. The mean change from baseline to Day 15 and Day 28 was calculated for the dominant hand. Statistical significance was calculated by Mann-Whitney non-parametric t-test (two tailed) (FIG. 5 and Table 5).

[3] = doses up to 6000 μg/plate
[4] = single dose 4 mg, N = 12 exposures
[5] = single dose 8 mg, N = 9 exposures
[6] = single dose 12 mg, N = 54 exposures

T1 sequence (O95180 whole entry): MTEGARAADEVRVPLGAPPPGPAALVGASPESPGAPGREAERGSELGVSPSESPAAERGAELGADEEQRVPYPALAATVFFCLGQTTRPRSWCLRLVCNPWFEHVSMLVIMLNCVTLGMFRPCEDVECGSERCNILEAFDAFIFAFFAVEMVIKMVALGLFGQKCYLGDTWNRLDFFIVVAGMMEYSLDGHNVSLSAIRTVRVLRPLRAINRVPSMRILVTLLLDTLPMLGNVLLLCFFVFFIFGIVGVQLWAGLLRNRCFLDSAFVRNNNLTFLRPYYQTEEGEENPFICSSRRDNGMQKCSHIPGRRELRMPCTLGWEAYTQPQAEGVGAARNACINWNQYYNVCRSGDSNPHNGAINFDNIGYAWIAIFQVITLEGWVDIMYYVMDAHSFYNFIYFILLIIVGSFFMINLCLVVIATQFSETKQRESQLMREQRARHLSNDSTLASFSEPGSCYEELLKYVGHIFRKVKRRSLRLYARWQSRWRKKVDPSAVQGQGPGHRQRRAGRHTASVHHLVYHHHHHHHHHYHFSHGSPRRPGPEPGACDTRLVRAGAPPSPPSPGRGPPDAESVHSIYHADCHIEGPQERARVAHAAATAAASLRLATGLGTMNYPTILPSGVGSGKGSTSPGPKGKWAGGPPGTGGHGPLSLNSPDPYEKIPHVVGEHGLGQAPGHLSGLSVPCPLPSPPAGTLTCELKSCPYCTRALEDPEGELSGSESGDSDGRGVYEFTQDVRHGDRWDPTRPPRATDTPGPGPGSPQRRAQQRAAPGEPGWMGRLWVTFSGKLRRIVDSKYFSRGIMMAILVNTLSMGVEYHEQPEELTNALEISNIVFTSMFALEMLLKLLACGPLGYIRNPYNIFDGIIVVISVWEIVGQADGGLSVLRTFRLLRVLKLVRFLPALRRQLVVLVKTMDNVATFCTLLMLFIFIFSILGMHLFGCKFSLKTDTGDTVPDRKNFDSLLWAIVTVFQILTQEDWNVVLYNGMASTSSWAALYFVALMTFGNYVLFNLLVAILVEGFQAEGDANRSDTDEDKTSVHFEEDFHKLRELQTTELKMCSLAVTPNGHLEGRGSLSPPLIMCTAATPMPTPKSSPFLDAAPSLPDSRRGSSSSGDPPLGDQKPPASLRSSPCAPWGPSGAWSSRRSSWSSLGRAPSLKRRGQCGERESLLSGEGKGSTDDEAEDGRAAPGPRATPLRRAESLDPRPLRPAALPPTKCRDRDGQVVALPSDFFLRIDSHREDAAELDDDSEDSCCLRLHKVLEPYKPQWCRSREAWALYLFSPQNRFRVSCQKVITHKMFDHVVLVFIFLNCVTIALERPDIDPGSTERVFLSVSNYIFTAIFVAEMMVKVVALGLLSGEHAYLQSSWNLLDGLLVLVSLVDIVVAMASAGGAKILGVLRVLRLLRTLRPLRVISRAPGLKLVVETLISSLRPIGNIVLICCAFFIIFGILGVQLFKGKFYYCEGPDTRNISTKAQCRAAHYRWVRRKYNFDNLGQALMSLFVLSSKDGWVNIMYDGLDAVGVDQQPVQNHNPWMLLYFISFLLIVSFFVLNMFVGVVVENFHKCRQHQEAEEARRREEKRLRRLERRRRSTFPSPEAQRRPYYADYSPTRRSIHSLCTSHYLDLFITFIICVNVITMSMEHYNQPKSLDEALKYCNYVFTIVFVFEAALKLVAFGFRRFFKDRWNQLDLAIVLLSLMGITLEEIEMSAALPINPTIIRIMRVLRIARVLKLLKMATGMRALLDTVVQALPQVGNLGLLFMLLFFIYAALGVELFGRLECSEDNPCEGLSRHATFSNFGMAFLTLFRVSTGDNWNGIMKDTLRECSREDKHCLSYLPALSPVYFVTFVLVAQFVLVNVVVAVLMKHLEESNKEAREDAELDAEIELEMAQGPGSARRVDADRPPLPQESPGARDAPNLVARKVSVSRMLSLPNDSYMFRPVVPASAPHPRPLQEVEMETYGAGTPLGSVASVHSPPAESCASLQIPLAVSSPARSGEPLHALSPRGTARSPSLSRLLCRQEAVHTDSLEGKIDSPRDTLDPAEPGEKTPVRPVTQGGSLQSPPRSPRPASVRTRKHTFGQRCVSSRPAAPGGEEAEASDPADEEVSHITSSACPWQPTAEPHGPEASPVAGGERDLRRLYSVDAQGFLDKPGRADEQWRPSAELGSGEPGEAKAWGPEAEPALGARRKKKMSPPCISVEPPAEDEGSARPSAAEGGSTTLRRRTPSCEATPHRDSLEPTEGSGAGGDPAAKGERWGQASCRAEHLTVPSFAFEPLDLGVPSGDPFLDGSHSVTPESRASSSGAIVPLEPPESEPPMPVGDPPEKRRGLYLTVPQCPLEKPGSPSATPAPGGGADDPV

CC(C)c1ccc(CC(=O)N[C@H](C)c2ccc(OCC(F)(F)F)cn2)cc1 [CX-8998]
IC50 (Cav3.2): 96 nM
Exposures with increase from baseline of ≥30 and ≤60 msec in QTc ([1]; 8 mg): 11.1%
Exposures with increase from baseline of ≥30 and ≤60 msec in QTc ([1]; 12 mg): 5.6%
At least 1 adverse event ([1]; Any Dose, N = 75 exposures): 33 (44.0) n (%)
Disorientation ([1]; Any Dose, N = 75 exposures): 3 (4.0) n (%)
Dry mouth ([1]; Any Dose, N = 75 exposures): 2 (2.7) n (%)
Gastrointestinal Disorders ([1]; Any Dose, N = 75 exposures): 7 (9.3) n (%)
Hallucinations visual ([1]; Any Dose, N = 75 exposures): 4 (5.3) n (%)
Headache ([1]; Any Dose, N = 75 exposures): 9 (12.0) n (%)
Insomnia ([1]; Any Dose, N = 75 exposures): 3 (4.0) n (%)
Nausea ([1]; Any Dose, N = 75 exposures): 2 (2.7) n (%)
Nervous System Disorders ([1]; Any Dose, N = 75 exposures): 15 (20.0) n (%)
Psychiatric Disorders ([1]; Any Dose, N = 75 exposures): 17 (22.7) n (%)
Somnolence ([1]; Any Dose, N = 75 exposures): 6 (8.0) n (%)
Vivid dreams ([1]; Any Dose, N = 75 exposures): 4 (5.3) n (%)
At least 1 adverse event [1, 4]: 4 (33.3) n (%)
Disorientation [1, 4]: 0 n (%)
Dry mouth [1, 4]: 0 n (%)
Gastrointestinal Disorders [1, 4]: 1 (8.3) n (%)
Hallucinations visual [1, 4]: 2 (16.7) n (%)
Headache [1, 4]: 1 (8.3) n (%)
Insomnia [1, 4]: 1 (8.3) n (%)
Nausea [1, 4]: 1(8.3) n (%)
Nervous System Disorders [1, 4]: 2 (16.7) n (%)
Psychiatric Disorders [1, 4]: 3 (25.0) n (%)
Somnolence [1, 4]: 1 (8.3) n (%)
Vivid dreams [1, 4]: 0 n (%)
At least 1 adverse event [1, 5]: 2 (22.2) n (%)
Disorientation [1, 5]: 0 n (%)
Dry mouth [1, 5]: 0 n (%)
Gastrointestinal Disorders [1, 5]: 1 (11.1) n (%)
Hallucinations visual [1, 5]: 0 n (%)
Headache [1, 5]: 0 n (%)
Insomnia [1, 5]: 0 n (%)
Nausea [1, 5]: 0 n (%)
Nervous System Disorders [1, 5]: 1 (11.1) n (%)
Psychiatric Disorders [1, 5]: 0 n (%)
Somnolence [1, 5]: 1 (11.1) n (%)
Vivid dreams [1, 5]: 0 n (%)
At least 1 adverse event [1, 6]: 27 (50.0) n (%)
Disorientation [1, 6]: 3 (5.6) n (%)
Dry mouth [1, 6]: 2 (3.7) n (%)
Gastrointestinal Disorders [1, 6]: 5 (9.3) n (%)
Hallucinations visual [1, 6]: 2 (3.7) n (%)
Headache [1, 6]: 8 (14.8) n (%)
Insomnia [1, 6]: 2 (3.7) n (%)
Nausea [1, 6]: 1 (1.9) n (%)
Nervous System Disorders [1, 6]: 12 (22.2) n (%)
Psychiatric Disorders [1, 6]: 14 (25.9) n (%)
Somnolence [1, 6]: 4 (7.4) n (%)
Vivid dreams [1, 6]: 4 (7.4) n (%)
Change from baseline in functional tremor frequency by iMotor, mean ([2]; Day 15 (8 mg BID)): −2.66 Hz
Change from baseline in functional tremor frequency by iMotor, mean ([2]; Day 28 (10 mg BID)): −2.41 Hz
Ames assay result [3]: negative
